Source: PMC6225228, “Design, Synthesis and Evaluation of N-pyrazinylbenzamides as Potential Antimycobacterial Agents” (Molecules : A Journal of Synthetic Chemistry and Natural …, 2018)
In brackets after ≈: the same amount, converted by molar mass. Where two headings read alike, the source gives them in different places.

Tests used:
[1] = tested on: Mycobacterium tuberculosis H37Rv CNCTC My 331/88 (ATCC 27294); experiment: Antimycobacterial microdilution MABA, M. tuberculosis; assay type: cell-based; settings: Mycobacterium tuberculosis
[2] = tested on: M. kansasii CNCTC My 235/80 (ATCC 12478); experiment: Antimycobacterial microdilution MABA, M. kansasii; assay type: cell-based, Mycobacterium kansasii; settings: Mycobacterium kansasii, ATCC12478, pH 6.6, read-out: M. kans. ATCC 12478 MIC, Middlebrook 7H9 with OADC, pH 6.6, MABA
[3] = tested on: M. avium ssp. avium CNCTC My 80/72 (ATCC 15769); experiment: Antimycobacterial microdilution MABA, M. avium; assay type: cell-based, Mycobacterium avium; settings: Mycobacterium avium, ATCC15769, pH 6.6, read-out: M. avium ATCC 15769 MIC
[4] = tested on: Mycobacterium smegmatis CCM 4622 (ATCC 607); experiment: Antimycobacterial microdilution, M. smegmatis; assay type: cell-based; settings: Mycolicibacterium smegmatis, read-out: M. smeg. ATCC 607 MIC
[5] = tested on: Staphylococcus aureus CCM 4516/08; experiment: Antibacterial microdilution broth, SA; assay type: cell-based; settings: Staphylococcus aureus
[6] = tested on: Staphylococcus aureus H 5996/08 methicillin resistant; experiment: microbe, parasite or virus in culture; assay type: cell-based; settings: for MIC: Staphylococcus aureus, MRSA, read-out: MIC MRSA
[7] = tested on: Staphylococcus epidermidis H 6966/08; experiment: Antibacterial microdilution broth, SE; assay type: cell-based; settings: read-out: MIC SE
[8] = tested on: Enterococcus sp. J 14365/08; experiment: Antibacterial microdilution broth, EF; assay type: cell-based; settings: Enterococcus, read-out: MIC EF
[9] = tested on: Escherichia coli CCM 4517; experiment: Antibacterial microdilution broth, EC; assay type: cell-based; settings: Escherichia coli, read-out: MIC EC
[10] = tested on: Pseudomonas aeruginosa CCM 1961; experiment: Antibacterial microdilution broth, PA; assay type: cell-based; settings: Pseudomonas aeruginosa, read-out: MIC PA
[11] = tested on: Candida albicans ATCC 44859; experiment: Antifungal microdilution broth, CA; assay type: cell-based; settings: Candida albicans, read-out: MIC CA
Candida tropicalis 156 = experiment: Antifungal microdilution broth, CT; assay type: cell-based; settings: read-out: MIC CT
Candida krusei E28 = experiment: Antifungal microdilution broth, CK; assay type: cell-based; settings: Pichia kudriavzevii, read-out: MIC CK
Candida glabrata 20/I = experiment: Antifungal microdilution broth, CG; assay type: cell-based; settings: Nakaseomyces glabratus, 20/I, read-out: MIC CG
Trichosporon asahii 1188 = experiment: Antifungal microdilution broth, TA; assay type: cell-based; settings: read-out: MIC TA
[12] = tested on: Aspergillus fumigatus 231; experiment: Antifungal microdilution broth, AF; assay type: cell-based; settings: read-out: MIC AF
[13] = tested on: Lichtheimia corymbifera 272; experiment: Antifungal microdilution broth, LC; assay type: cell-based; settings: read-out: MIC LC
[14] = tested on: Trichophyton interdigitale 445; experiment: Antifungal microdilution broth, TI; assay type: cell-based; settings: read-out: MIC TI
[15] = Confirmatory prolonged HepG2 cytotoxicity, CellTox Green Cytotoxicity Assay; settings: human, HepG2 cells
[16] = human, HepG2 cells
[17] = tested on: Mycobacterium tuberculosis H37Rv (Mtb); settings: Šula's semisynthetic medium, pH = 5.6, turbidity, cited from earlier work; for Amides MIC: first value; for Amides MIC (value in parentheses): second value in parentheses
HepG2 cells = settings: read-out: Amide -CONH- IC50; cited from earlier work

O=C(Nc1cnc(Cl)cn1)c1ccccc1O [Compound 2b] showed an MIC ([1]; read-out: Mtb H37Rv ATCC 27294 MIC, Middlebrook 7H9 with OADC growth supplement, pH = 6.6, MABA) of 12.5 µg/mL, an MIC ([1]; read-out: Mtb MIC, molar concentration) of 50.1 µM and an MIC [2] of 50 µg/mL (≈ 200 µM). For the same compound, the MIC [3] was 50 µg/mL (≈ 200 µM), the MIC [4] was 15.6 µg/mL (≈ 62.6 µM) and the MIC ([5]; CCM4516, 24 h, read-out: MIC SA, 24 h) was 15.6 µM (≈ 3.9 µg/mL). For the same compound, the MIC ([5]; CCM4516, 48 h, read-out: MIC SA, 48 h) was 15.6 µM (≈ 3.9 µg/mL), the “MIC MRSA” value ([6]; 24 h) was 62.50 µM (≈ 15.6 µg/mL) and the “MIC MRSA” value ([6]; 48 h) was 62.50 µM (≈ 15.6 µg/mL). It also gave an MIC ([6]; 24 h) of 62.5 µM (≈ 15.6 µg/mL), an MIC ([6]; 48 h) of 62.5 µM (≈ 15.6 µg/mL) and an MIC ([7]; 24 h) of 62.50 µM (≈ 15.6 µg/mL). For the same compound, the MIC ([7]; 48 h) was 62.50 µM (≈ 15.6 µg/mL), the MIC ([7]; Staphylococcus epidermidis, H6966/08, 24 h) was 62.5 µM (≈ 15.6 µg/mL) and the MIC ([7]; Staphylococcus epidermidis, H6966/08, 48 h) was 62.5 µM (≈ 15.6 µg/mL). The MIC ([8]; SP.J14365/08, 24 h) was over 500 µM, the MIC ([8]; SP.J14365/08, 48 h) was over 500 µM and the MIC ([9]; CCM4517, 24 h) was over 500 µM. The MIC ([9]; CCM4517, 48 h) was over 500 µM, the MIC ([10]; CCM1961, 72 h) was over 500 µM and the MIC ([10]; CCM1961, 120 h) was over 500 µM. The MIC ([11]; ATCC44859, 24 h) was 62.5 µM (≈ 15.6 µg/mL), the MIC ([11]; ATCC44859, 48 h) was 62.5 µM (≈ 15.6 µg/mL) and the MIC (Candida tropicalis 156; Candida tropicalis, 156, 24 h) was 125 µM (≈ 31.2 µg/mL). It also gave an MIC (Candida tropicalis 156; Candida tropicalis, 156, 48 h) of 125 µM (≈ 31.2 µg/mL), an MIC (Candida krusei E28; E28, 24 h) of 125 µM (≈ 31.2 µg/mL) and an MIC (Candida krusei E28; E28, 48 h) of 125 µM (≈ 31.2 µg/mL). The MIC (Candida glabrata 20/I; 24 h) was 125 µM (≈ 31.2 µg/mL), the MIC (Candida glabrata 20/I; 48 h) was 125 µM (≈ 31.2 µg/mL) and the MIC (Trichosporon asahii 1188; Trichosporon asahii, 1188, 24 h) was 62.5 µM (≈ 15.6 µg/mL). The MIC (Trichosporon asahii 1188; Trichosporon asahii, 1188, 48 h) was 125 µM (≈ 31.2 µg/mL), the MIC ([12]; Aspergillus fumigatus, 231, 24 h) was 125 µM (≈ 31.2 µg/mL) and the MIC ([12]; Aspergillus fumigatus, 231, 48 h) was 125 µM (≈ 31.2 µg/mL). For the same compound, the MIC ([13]; Lichtheimia corymbifera, 272, 24 h) was 62.5 µM (≈ 15.6 µg/mL), the MIC ([13]; Lichtheimia corymbifera, 272, 48 h) was 125 µM (≈ 31.2 µg/mL) and the MIC ([14]; Trichophyton interdigitale, 445, 72 h) was 125 µM (≈ 31.2 µg/mL). For the same compound, the MIC ([14]; Trichophyton interdigitale, 445, 120 h) was 125 µM (≈ 31.2 µg/mL), the melting point was 197.7 to 198.2 °C and the IC50 at 24 h [15] was 545 µM. For the same compound, the IC50 at 48 h [15] was 188 µM and the IC50 at 24 h [16] was 155 µM.
In the case of CCc1ccc(NC(=O)c2cnc(Cl)cn2)cc1 [Amide R1=5-Cl R2=4-Et], the “Amides MIC” value [17] is listed as 1.56 µg/mL, the “Amides MIC (value in parentheses)” value [17] is listed as 0.78 µg/mL and the IC50 (HepG2 cells) is listed as 7.2 µM.
For O=C(Nc1ccccc1O)c1cnc(Cl)cn1 [Amide R1=5-Cl R2=2-OH], the “Amides MIC” value [17] is given as 3.13 µg/mL, the “Amides MIC (value in parentheses)” value [17] is given as 0.78 µg/mL and the IC50 (HepG2 cells) is given as 30 µM.
